Among the data in patent publication US9284333B2, “Fused pyrroledicarboxamides and their use as pharmaceuticals” (SANOFI, priority 2012, dated 2016) are inhibition and IC50 values, retold here.

For the first test, the target named is Human TASK-1 channels (Homo sapiens (Human), UniProt O14649). Briefly: Determination of the activity on the TASK-1 channel in Xenopus oocytes (two-microelectrode voltage clamp). Format: cell-based. Conditions: compound concentration 5 μM. Put shortly: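 Current during 500 ms pulses to 40 mV from a −90 mV hold was recorded in oocytes expressing human TASK-1 for two days after cRNA injection. Compounds were added cumulatively to the ND96 bath (pH 7.4, room temperature). IC50 came from dose-response fitting of inhibition relative to pre-compound current.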
Human TASK-1 channels, sequence (O14649 whole entry): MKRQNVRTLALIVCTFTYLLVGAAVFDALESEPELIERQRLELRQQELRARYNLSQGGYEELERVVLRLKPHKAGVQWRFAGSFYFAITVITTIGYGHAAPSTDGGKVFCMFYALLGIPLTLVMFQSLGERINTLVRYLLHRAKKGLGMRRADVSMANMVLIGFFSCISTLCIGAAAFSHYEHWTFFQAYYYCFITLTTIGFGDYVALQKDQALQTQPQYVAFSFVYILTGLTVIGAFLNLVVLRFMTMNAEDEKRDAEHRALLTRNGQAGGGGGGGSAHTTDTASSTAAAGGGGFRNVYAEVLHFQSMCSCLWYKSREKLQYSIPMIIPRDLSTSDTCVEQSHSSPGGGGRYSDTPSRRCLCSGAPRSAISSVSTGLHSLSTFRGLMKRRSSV
The inhibition is the relative decrease from the control value, in per cent. Low readings indicate a weak effect, high ones a strong effect. For `CC[C@@H](NC(=O)c1cc(C(=O)Nc2cncc(F)c2)n2c1CCCC2)c1ccccc1` [16ne, 5,6,7,8-Tetrahydro-indolizine-1,3-dicarboxylic acid 3-[(5-fluoro-pyridin-3-yl)-amide] 1-[((R)-1-phenyl-propyl)-amide]], the inhibition at 5 µM amounted to 83%.

Staying with this test, now noted: human TASK-1 expressed in Xenopus oocytes, room temperature; read-out: IC50 value for TASK-1 inhibition.
A word on the IC50: it is the midpoint of a concentration-inhibition curve. Take `CC[C@@H](NC(=O)c1cc(C(=O)NCc2ccc(F)cc2F)c2n1CCOC2)c1cccc(OC)n1` [16nt, 3,4-Dihydro-1H-pyrrolo[2,1-c][1,4]oxazine-6,8-dicarboxylic acid 8-(2,4-difluoro-benzylamide) 6-{[(R)-1-(6-methoxy-pyridin-2-yl)-propyl]-amide}]: the IC50 is 0.67 µM.
On the same count and under the same terms, the same measure for `CC[C@@H](NC(=O)c1cc(C(=O)N2CCC[C@@H]2C)n2c1CCCC2)c1ccc(C#N)nc1` [16lv, 3-((S)-2-Methyl-pyrrolidine-1-carbonyl)-5,6,7,8-tetrahydro-indolizine-1-carboxylic acid [(R)-1-(6-cyano-pyridin-3-yl)-propyl]-amide]: 2.1 µM.
Still for that read-out and setting: next, `CCO[C@H]1CCN(C(=O)c2cc(C(=O)N[C@H](CC)c3ccccc3)c3n2CCOC3)C1` [16es, 6-((S)-3-Ethoxy-pyrrolidine-1-carbonyl)-3,4-dihydro-1H-pyrrolo[2,1-c][1,4]oxazine-8-carboxylic acid ((R)-1-phenyl-propyl)-amide]: 1.8 µM; `CC[C@@H](NC(=O)c1cc(C(=O)N2CCC[C@@H]2C(F)(F)F)n2c1COCC2)c1ccccc1` [16eu, 6-((R)-2-Trifluoromethyl-pyrrolidine-1-carbonyl)-3,4-dihydro-1H-pyrrolo[2,1-c][1,4]oxazine-8-carboxylic acid ((R)-1-phenyl-propyl)-amide]: 0.049 µM; `CC[C@@H](NC(=O)c1cc(C(=O)N[C@H](C)c2cnccn2)n2c1COCC2)c1ccccc1Cl` [16nq, 3,4-Dihydro-1H-pyrrolo[2,1-c][1,4]oxazine-6,7-dicarboxylic acid 8-{[(R)-1-(2-chloro-phenyl)-propyl]-amide} 6-[((R)-1-pyrazin-2-yl-ethyl)-amide]]: 0.48 µM.
As for `CC[C@@H](NC(=O)c1cc(C(=O)N2CCC[C@@H]2C)n2c1COCC2)c1ccc(F)cc1Cl` [16u, 6-((S)-2-Methyl-pyrrolidine-1-carbonyl)-3,4-dihydro-1H-pyrrolo[2,1-c][1,4]oxazine-8-carboxylic acid [(R)-1-(2-chloro-4-fluoro-phenyl)-propyl]-amide], the IC50 came out at 0.049 µM.
The same measure, in the same setting: next, `CC[C@@H](NC(=O)c1cc(C(=O)N2CCCC2CN2CCOCC2)n2c1COCC2)c1ccccc1` (stereo partly drawn) [16fr, 6-(2-Morpholin-4-ylmethyl-pyrrolidine-1-carbonyl)-3,4-dihydro-1H-pyrrolo[2,1-c][1,4]oxazine-8-carboxylic acid ((R)-1-phenyl-propyl)-amide]: 1.3 µM; “6-((S)-2-Methyl-pyrrolidine-1-carbonyl)-3(4-dihydro-1H-pyrrolo[2,1-c][1,4]oxazine-8-carboxylic acid [(R)-1-(2,2-difluoro-benzo[1,3]dioxol-5-yl)-propyl]-amide [16bz]”: 0.2 µM.
Same read-out and setting: next, `CC[C@@H](NC(=O)c1cc(C(=O)N2CCC[C@@H]2C(C)OC)n2c1COCC2)c1ccccc1` (stereo partly drawn) [16ez, 6-[(R)-2-(1-Methoxy-ethyl)-pyrrolidine-1-carbonyl]-3,4-dihydro-1H-pyrrolo[2,1-c][1,4]oxazine-8-carboxylic acid ((R)-1-phenyl-propyl)-amide]: 0.5 µM; `CC[C@@H](NC(=O)c1cc(C(=O)NCC2CCOCC2)n2c1CCCC2)c1ccccc1` [16mq, 5,6,7,8-Tetrahydro-indolizine-1,3-dicarboxylic acid 1-[((R)-1-phenyl-propyl)-amide] 3-[(tetrahydro-pyran-4-ylmethyl)-amide]]: 0.31 µM.
Still for that read-out and setting: next, `CC[C@@H](NC(=O)c1cc(C(=O)N2CCC[C@@H]2C)n2c1COCC2)c1ccc(Cl)c(Cl)c1` [16ci, 6-((S)-Methyl-pyrrolidine-1-carbonyl)-3,4-dihydro-1H-pyrrolo[2,1-c][1,4]oxazine-8-carboxylic acid [(R)-1-(3,4-dichloro-phenyl)-propyl]-amide]: 0.03 µM.
